The text below walks through data of US10287301B2 (Achillion Pharmaceuticals, Inc., priority 2015, dated 2019).

The subject of the test is complement alternative pathway (CAP), hemolysis of rabbit erythrocytes (RE). The experiment in a line: Combination therapy: hemolysis assay of two compounds. Type of test: cell-based, human. As to conditions: combination with Complement Factor D inhibitor ("1"); 95% confidence limits; means ± standard deviations from two or three independent experiments. On the procedure:
The combinatorial efficacy of two compounds on the complement alternative pathway (CAP) was assessed by determining the effect of two compounds mixed together at various concentrations with Normal Human Serum (NHS) on the hemolysis of rabbit erythrocytes (RE) or the production of terminal complement complex (TCC). In both assays the two test compounds were prepared individually in seven-point dilution series, with an eighth sample for each containing solvent alone, and each of the 64 possible combinations was tested in duplicate or triplicate wells.
In the hemolysis assay, NHS (Complement Technology) diluted to 10% in GVB^0 Buffer (0.1% gelatin, 5 mM Veronal, 145 mM NaCl, 0.025% NaN3, pH 7.3, Complement Technology) plus 10 mM Mg-EGTA was incubated with the compounds at various concentrations for 15 minutes at 37° C. RE (Complement Technology) freshly suspended in GVB^0 plus 10 mM Mg-EGTA was added to a final concentration of 1×10^8 cells/mL and reactions were incubated for 30 minutes at 37° C. Positive control reactions consist of GVB^0 plus Mg-EGTA with NHS and RE but without test compounds; negative control reactions consist of GVB^0 plus Mg-EGTA with RE only. Samples were centrifuged at 2000 g for 3 minutes and supernatants collected. Absorbance at 405 nm (A405) was recorded using a microplate spectrophotometer.
Combinatorial effects in both assays were analyzed using the three-dimensional surface-graphing method of Prichard, M. N. and C. Shipman, Jr., Antiviral Research 1990, 14: 181-205, wherein the X-axis and Y-axis indicate test compound concentrations and the Z-axis indicates the difference between measured inhibition and a theoretically determined additive inhibition. For an additive combinatorial relationship the surface graph will resemble a horizontal plane of zero height, whereas positive surface peaks indicate greater inhibition than expected and therefore synergy, and negative surface peaks indicate less inhibition than expected and therefore antagonism.
Synergy and antagonism volumes are the summed volumes of peaks respectively above and below the Z=0 plane on the surface graph. Volumes are determined using 95% confidence limits to assure significance. Compounds are considered additive for volumes between −25 and 25. Compounds are considered slightly synergistic for volumes between 25 and 50, moderately synergistic for volumes between 50 and 100, and strongly synergistic for volumes greater than 100. Compounds are considered slightly antagonistic for volumes between −25 and −50, moderately antagonistic for volumes between −50 and −100, and strongly antagonistic for volumes less than −100. Results are presented as means±standard deviations from two or three independent experiments.
`CCN[C@H](CC(=O)N1CCN(c2nc(N)c3cc(OC)c(OC)c(F)c3n2)CC1)c1ccc(F)cc1` [Complement Factor B inhibitor]: the “Antagonism Volume” value is reported as −18 ± 10 μM^2 · % inhibition and the “Synergy Volume” value came out at 157 ± 99 μM^2 · % inhibition.
The corresponding values for `CC[C@H](C)[C@H](N)C(=O)N[C@H]1CSSC[C@@H](C(=O)N[C@H](C(N)=O)[C@@H](C)O)NC(=O)[C@H](CCCN=C(N)N)NC(=O)[C@H](Cc2cnc[nH]2)NC(=O)[C@H](Cc2cnc[nH]2)NC(=O)CNC(=O)[C@H](Cc2c[nH]c3ccccc23)NC(=O)[C@H](CC(=O)O)NC(=O)[C@H](CCC(N)=O)NC(=O)[C@H](C(C)C)NC(=O)[C@H](C(C)C)NC1=O` [Compstatin] are −17 ± 15 μM^2 · % inhibition and 244 ± 104 μM^2 · % inhibition.
Turning to `N=C(N)c1ccc2cc(OC(=O)c3ccc(N=C(N)N)cc3)ccc2c1` [FUT-175], the “Antagonism Volume” value was −59 ± 11 μM^2 · % inhibition and the “Synergy Volume” value is on record as 95 ± 37 μM^2 · % inhibition.
